Where two headings read alike, the source gives them in different places.
Legend:
[1] = molecular target: T1, NTMT1 (Homo sapiens, UniProt Q9BV86); details: cited from earlier work
T1 construct: made in house
T1 sequence (Q9BV86 1-223): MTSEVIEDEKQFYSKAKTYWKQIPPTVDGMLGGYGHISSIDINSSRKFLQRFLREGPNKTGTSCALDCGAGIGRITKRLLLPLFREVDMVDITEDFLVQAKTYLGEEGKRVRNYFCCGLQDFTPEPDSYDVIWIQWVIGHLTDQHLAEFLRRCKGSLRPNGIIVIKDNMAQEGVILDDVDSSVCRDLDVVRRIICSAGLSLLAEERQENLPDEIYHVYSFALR

[2] = test system: panel of 41 methyltransferases; details: among a panel of 41 methyltransferases; cited from earlier work
[3] = test system: HCT116 cells; assay: Cytotoxicity / cell viability, alamarBlue (resazurin) assay; type: cell-based; details: Homo sapiens, HCT-116, normal HCT116 cells
Excerpt: To test this hypothesis, compound 1a was selected to evaluate its effects on both wild-type and NTMT1 knockout HCT116 cells (FIG. 3B).

[4] = molecular target: T1, NTMT1; assay: NTMT1 biochemical assay (SAHH-coupled fluorescence assay)
[5] = in vitro; details: PAMPA
Method: The stock solutions in 10 mM DMSO was diluted with PBS to a final concentration of 200 μM with 2% DMSO (v/v). Verapamil was added as a control. The pre-coated PAMPA plate system was warmed to room temperature, and the donor plate (bottom) was filled with 300 μL of the diluted sample solution while the acceptor plate (top) was filled with 200 μL of the buffer. […] The permeability of each compound was calculated using the formula:
• CD (t)=compound concentration in donor well at time t. • CA (t)=compound concentration in acceptor well at time t. • VD=donor well volume • VA=acceptor well volume • A=filter area • t=incubation time

[6] = test system: cellular α-N-terminal methylation level in HCT116 cells; assay: Cellular N-terminal methylation assay (Western blot, anti-me3-SPK); type: cell-based, human; details: for IC50: Homo sapiens, HCT-116, HCT116 cells, Western blot, n = 2
Method: (§1) FIGS. 4A-4C. Cellular N-terminal methylation assay of GD562 (1d), GD564 (1f), and GD573 (1e) in HCT116 cells. Representative Western blot results of the effects of GD562 (0-300 μM) on the cellular methylation level (n=2) (FIG. 4A). Representative Western blot results of the effects of GD564 (0-100 μM) on the cellular methylation level (n=2) (FIG. 4B). Representative Western blot results of the effects of GD573 (0-300 μM) on the cellular methylation level (n=2) (FIG. 4C). Image quantification was done using ImageJ software (NIH).
Cellular N-methylation level. […] The membrane was then blocked for 1 hour in 5% milk TBST solution and washed with 1×TBST solution three times. […] Image quantification was done using ImageJ software (NIH).

[7] = test system: me3-RCC1; assay: Cellular N-terminal methylation assay, me3-RCC1; type: cell-based, human; details: HCT116 cells; for IC50: Homo sapiens, HCT-116
Method: as §1, with “.” for “FIGS. 4A-4C. Cellular N-terminal methylation assay of GD562 (1d), GD564 (1f), and GD573 (1e) in HCT116 cells.”
(§2) […]. Cellular N-methylation level. […] The membrane was then blocked for 1 hour in 5% milk TBST solution and washed with 1×TBST solution three times. […] Image quantification was done using ImageJ software (NIH).

[8] = test system: me3-SET; assay: Cellular N-terminal methylation assay, me3-SET; type: cell-based; details: Homo sapiens, HCT-116, HCT116 cells
Method: as §1, with “.” for “FIGS. 4A-4C. Cellular N-terminal methylation assay of GD562 (1d), GD564 (1f), and GD573 (1e) in HCT116 cells.”
as §2

[9] = test system: me3-RCC1; details: cited from earlier work
[10] = test system: me3-SET; details: at 300 μM in HCT116 cells, previously reported; cited from earlier work
[11] = recombinant NTMT1, n = 2, mean ± SD

Structure (SMILES) | IC50 [4, 11] [µM] | Papp at 5 h, 200 μM [5] [×10⁻⁶ cm/s] | IC50 [6] [µM] | GI50 [3] [µM] | also measured
NCCCC[C@H](NC(=O)[C@@H]1CCCN1C(=O)Cc1ccc(O)cc1)C(=O)N[C@@H](CCCN=C(N)N)C(N)=O [BM30] | – | – | – | – | IC50 ([1]; previously reported inhibitors): 0.89 ± 0.1 µM; Selectivity for NTMT1/2 [2]: over 100 fold
NCCCC[C@H](NC(=O)[C@@H]1CCCN1C(=O)Cc1cccc2ccccc12)C(=O)Nc1cccc(Br)c1 [Compound 1a] | 0.17 ± 0.008 | – | – | 48 to 135 | –
NCCCC[C@H](NC(=O)[C@@H]1CCCN1C(=O)Cc1cccc2ccccc12)C(=O)Nc1ccc(Br)cc1 [Compound 1b] | 0.18 ± 0.007 | – | – | 48 to 135 | –
NCCCC[C@H](NC(=O)[C@@H]1CCCN1C(=O)Cc1cccc2ccccc12)C(=O)NCc1ccccc1 [Compound 1c] | 0.91 ± 0.03 | 0.24 ± 0.06 | < 300 | > 300 | –
NCCCC[C@H](NC(=O)[C@@H]1CCCN1C(=O)Cc1cccc2ccccc12)C(=O)NCCc1ccccc1 [Compound 1d] | – | 0.26 ± 0.06 | ~50 | > 300 | Increase in cellular inhibition activity on me3-RCC1 compared to DC541 [7]: over 2 fold; IC50 ([7]; read-out: Cellular IC50 on N-terminal methylation of RCC1): ~50 µM; IC50 ([7]; read-out: Cellular IC50 on me3-RCC1): ~50 µM; Difference between enzymatic and cellular IC50 values [6]: ~50 fold; IC50 ([8]; read-out: Cellular IC50 on N-terminal methylation of SET): ~50 µM; IC50 ([8]; read-out: Cellular IC50 on me3-SET): ~50 µM
NCCCC[C@H](NC(=O)[C@@H]1CCCN1C(=O)Cc1cccc2ccccc12)C(=O)NCCCc1ccccc1 [Compound 1e] | 0.65 ± 0.01 | 0.17 ± 0.08 | ~100 | > 300 | –
NCCCC[C@H](NC(=O)[C@@H]1CCCN1C(=O)Cc1cccc2ccccc12)C(=O)NCC1CCCCC1 [Compound 1f] | 0.94 ± 0.03 | 0.47 | ~100 | > 300 | –
NCCCC[C@H](NC(=O)[C@@H]1CCCN1C(=O)Cc1cccc2ccccc12)C(=O)NCc1cccc(Br)c1 [Compound 1g] | 0.58 ± 0.03 | 0.6 ± 0.1 | < 300 | – | –

More lines, main results first:

IC50 [4, 11] [µM] | Papp at 5 h, 200 μM [5] [×10⁻⁶ cm/s] | IC50 [6] [µM] | Structure (SMILES) | GI50 [3] [µM] | also measured
0.82 ± 0.07 | 0.9 ± 0.2 | < 300 | NCCCC[C@H](NC(=O)[C@@H]1CCCN1C(=O)Cc1cccc2ccccc12)C(=O)NCc1ccc(Br)cc1 [Compound 1h] | – | –
– | 0.9 | – | NCCCC[C@H](NC(=O)[C@@H]1CCCN1C(=O)Cc1cccc2ccccc12)C(=O)NCCc1ccc(-c2ccccc2)cc1 [Compound 1j] | – | IC50 [4]: 2.5 ± 0.09 µM
0.69 ± 0.08 | 1.3 | – | NCCCC[C@H](NC(=O)[C@@H]1CCCN1C(=O)Cc1cccc2ccccc12)C(=O)NCCc1cccc(-c2ccccc2)c1 [Compound 1k] | 48 to 135 | Permeability [5]: ±0.4 10^−6 cm/s
0.34 ± 0.03 | – | – | NCCCC[C@H](NC(=O)[C@@H]1CCCN1C(=O)Cc1cccc2ccccc12)C(=O)Nc1ccccc1C(N)=O [DC541] | – | IC50 ([9]; HCT116, previously reported, read-out: Cellular IC50 on the me3-RCC1 level): ~100 µM; Enhancement of cellular inhibition compared to DC113 [9]: about 10 fold; Decrease in inhibitory activity on recombinant NTMT1 compared to DC113 [1]: ~3 fold; IC50/IC50 (DC541) ([4]; ratio of NTMT1 IC50 to that of DC541): 1.0; Inhibition of me3-SET level [10]: did not show any inhibition
